Test results: patent publication EP0381374A1, “Phosphodiesterase inhibitors” (LES LABORATOIRES BEECHAM S.A., priority 1989, dated 1990)

What was measured:
[1] = tested on: Canine cardiac myofibrillar Ca⁺⁺-dependent Mg⁺⁺ ATPase; assay: Measurement of myofibrillar Ca++-dependent Mg++-ATPase activity; format: biochemical; settings: Concentration: 3 x 10⁻⁵ molar; for Max ATPase activity(%): percent change of ATPase activity for pCa = 5.47; for Shift in pCa50 (ΔpCa50): shift of the pCa giving 50% of the maximal control ATPase activity, 21°C, pH 7.0
Procedure: 1. Measurement of myofibrillar Ca++-dependent Mg++-ATPase activity
The effect on Ca++sensitivity and on maximal activity of myofibrillar Ca++-dependent Mg++-ATPase was determined on canine cardiac myofibrils.
(a) Contractile protein preparation
Cardiac myofibrils free of membrane contaminants were prepared from left ventricular tissue of dog hearts using a modification of the method described by SOLARO et al, Biochem. Biophys. Acta, 245, 259-262, (1971). Before centrifugation, the heart homogenate was filtered through gauze.
After Triton X-100 treatments, the myofibrillar fraction was washed once by resuspension and centrifugation in 10 volumes of 1 mM EGTA, […] KCl, 30 mM imidazole, 2 mM MgCl₂, pH 7.0. The pellet was then washed three times in 10 volumes of the same buffer without EGTA. Before the last centrifugation, the suspension of myofibrils was filtered through a stainless steel sieve with 0.25 mm meshes.
Myofibrils were kept in pellet overnight. Before use, the pellet was suspended in a small amount of buffer, the protein concentration was determined by the method of BRADFORD M., Anal. Biochem., 1976, 72, 248 and adjusted in order to have a concentration between 6 and 7mg/ml, using gamma globuline as standard.
(b) Myofibrillar ATPase activity
Ca++-dependent myfibrillar ATPase activity was determined at 21 °C, pH 7.0, by measuring the rate of release of inorganic phosphate. All assays were performed within 24hrs. of final purification, using the method described by SOLARO and RUEGG, CIRC. RES., 51, 290-4,(1982). Reaction mixtures (4ml) containing 0.6 - 0.7 mg/ml myofibrillar protein, 80mM KCl, 20 mM imidazole, 3 mM MgCl₂, 1 mM EGTA, the desired amount of CaCl₂, and the indicated concentration of drug or appropriate vehicle were preincubated for 6 min. prior to assay. The amount of CaCl₂ was varied between 0 and 0.9 mM and the pca (-log free Ca++) computed using 2.514 x 10⁶ M⁻¹ as the apparent affinity of Ca++ for EGTA at pH 7.0.
Reactions were initiated by the addition of Na₂ATP to final concentration of 2 mM. After an incubation period of 12 min., reactions were quenched by the addition of an equal volume of ice-cold 10% trichloroacetic acid. The protein was pelleted by centrifugation (2000g, 15 min.) and Pi was assayed in the supernatant fraction using a modification of the method described by LANZETTA et al, Anal. Biochem., 100, 95-97, (1979).
The following solutions were prepared: • (1) 3.7% ammonium heptamolybdate in 0.12 N H₂SO₄ • (2) 0.074% malachite green oxalate in 1% polyvinylic alcohol.
The colour reagent was prepared by mixing an equal volume of solution (1) and (2) 15 min. before the assay. For the assay, 1700 µl of 1% H₂SO₄ and 1 ml of colour reagent were added to 100 µl of sample. Colour development occurred at room temperature for 30 min. and was quenched by the addition of 200 µl of 1 M tri-potassium citrate. The absorbance was measured at 620 millimicrons.
The effect of each compound, tested at the indicated concentration, on the relation between pCa and percent activation was determined taking 100% for the maximum ATPase activity obtained with vehicle alone. The effect on Ca++ sensitivity was quantified by measuring the shift of the pCa giving 50% of the maximal control ATPase activity.
The effect on maximal ATPase activity was expressed as the percent change of ATPase activity for pCa = 5.47.

[2] = biological target: T1, CGI-PDE (i.e., c-GMP-inhibited PDE) (Canis lupus familiaris, UniProt A0A8I3NYE0); assay: Inhibition of cardiac phosphodiesterases, Fraction IV (CGI-PDE); format: biochemical; settings: canine left ventricle PDE Fraction IV
T1 construct: isoforms of canine left ventricle were separated by column ion exchange chromatography; from tissue; host or cells: canine left ventricle, Fractogel TSK DEAE 650 fraction IV
T1 sequence (A0A8I3NYE0 1-1135): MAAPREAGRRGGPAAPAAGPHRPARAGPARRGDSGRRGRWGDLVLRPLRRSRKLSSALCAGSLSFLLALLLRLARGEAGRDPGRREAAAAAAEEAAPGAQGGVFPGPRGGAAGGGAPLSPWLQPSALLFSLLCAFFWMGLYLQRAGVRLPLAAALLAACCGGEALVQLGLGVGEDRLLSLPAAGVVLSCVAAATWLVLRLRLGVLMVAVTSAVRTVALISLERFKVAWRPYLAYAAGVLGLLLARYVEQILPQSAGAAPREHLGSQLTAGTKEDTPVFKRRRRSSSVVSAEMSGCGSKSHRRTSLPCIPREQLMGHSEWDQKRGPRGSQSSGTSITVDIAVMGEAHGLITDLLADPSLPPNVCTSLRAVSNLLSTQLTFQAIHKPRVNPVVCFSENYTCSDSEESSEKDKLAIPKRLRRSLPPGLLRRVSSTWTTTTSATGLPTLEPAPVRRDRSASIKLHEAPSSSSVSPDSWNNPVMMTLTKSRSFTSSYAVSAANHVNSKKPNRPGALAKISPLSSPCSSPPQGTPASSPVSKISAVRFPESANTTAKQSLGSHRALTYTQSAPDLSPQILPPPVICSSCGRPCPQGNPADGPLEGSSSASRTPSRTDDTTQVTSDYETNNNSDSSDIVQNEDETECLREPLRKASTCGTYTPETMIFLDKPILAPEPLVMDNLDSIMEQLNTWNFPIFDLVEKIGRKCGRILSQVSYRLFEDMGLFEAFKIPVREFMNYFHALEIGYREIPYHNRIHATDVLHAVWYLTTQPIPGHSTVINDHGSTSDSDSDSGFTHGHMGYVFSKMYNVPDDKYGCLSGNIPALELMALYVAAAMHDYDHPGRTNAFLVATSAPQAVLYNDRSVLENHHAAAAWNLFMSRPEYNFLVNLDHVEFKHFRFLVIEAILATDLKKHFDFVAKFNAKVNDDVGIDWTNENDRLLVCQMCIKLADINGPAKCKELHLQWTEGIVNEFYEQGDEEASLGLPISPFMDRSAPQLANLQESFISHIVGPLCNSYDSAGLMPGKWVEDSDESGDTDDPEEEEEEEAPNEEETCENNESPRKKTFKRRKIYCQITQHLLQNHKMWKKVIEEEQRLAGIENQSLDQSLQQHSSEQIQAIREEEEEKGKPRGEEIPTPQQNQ
Procedure: 2. Inhibition of Cardiac Phosphodiesterases
The phosphodiesterases (PDE) isoforms of canine left ventricle were separated by column ion exchange chromatography, using a minor modification of the method previously described by Alvarez et al. (Mol. Pharmacol., 1986, 29, 554-560). A Fractogel TSK DEAE 650 column was used and the PDEs were eluted using a continuous sodium acetate gradient (50 to 500 mM). The flow rate was 1.2ml/min and fractions of c.a. 8ml were collected as described by Weishaar et al. (Biochem. Pharmacol., 1986, 35, 787-800).
Four isoforms were identified • i) Fraction I or CAM-PDE (i.e. Ca⁺⁺/calmodulin-activated PDE), which hydrolyses both c-AMP and c-GMP, and presents a low Km for c-AMP over a wide range of concentration. It is activated by Ca⁺⁺/calmodulin. • ii) Fraction II or CGS-PDE (i.e. c-GMP-stimulated PDE), which hydrolyses more specifically c-GMP, and presents a high Km, for c-AMP over a wide range of concentration. It is stimulated by c-GMP. • iii) Fraction III or NCGI-PDE (i.e. not c-GMP-inhibited PDE), which hydrolyses more specifically c-AMP and presents two relatively low Km sites of affinity. It is not inhibited by c-GMP. iv) Fraction IV or CGI-PDE (i.e., c-GMP-inhibited PDE), which also hydrolyses more specifically c-AMP, and also presents two relatively low Km site of affinity. It is inhibited by c-GMP.
The inhibitory effect of the test compounds was expressed as the IC₅₀, i.e. the concentration which inhibits the activity by 50%, this value being expressed in micromoles.

Row | Compound | Max ATPase activity(%) [1] | Shift in pCa50 (ΔpCa50) [1] | IC50 [2] [µM]
1 | 1-Cyclohexylmethyl-5-(3,6-dihydro-6-methyl-2-oxo-2H-1,3,4-thiadiazin-5-yl)-1,3-dihydro-3,3-dimethyl-2H-indol-2-one [Example 9] | +11% | 0.32 | –
2 | CC1SC(=O)NN=C1c1ccc2c(c1)C(C)(C)C(=O)N2C(=O)Nc1ccccc1 (stereo not drawn) [Example 2, 2,3-Dihydro-5-(3,6-dihydro-6-methyl-2-oxo-2H-1,3,4-thiadiazin-5-yl)-3,3-dimethyl-2-oxo-N-phenyl-1H-indole-1-carboxamide] | – | – | 15
3 | CC1SC(=O)NN=C1c1ccc2c(c1)C(C)(C)C(=O)N2Cc1ccccc1 (stereo not drawn) [Example 5, 1,3-Dihydro-5-(3,6-dihydro-6-methyl-2-oxo-2H-1,3,4-thiadiazin-5-yl)-3,3-dimethyl-1-(phenylmethyl)-2H-indol-2-one] | – | 0.38 | –
4 | CC1SC(=O)NN=C1c1ccc2c(c1)C(C)(C)C(=O)N2c1ccccc1 (stereo not drawn) [Example 7, 1,3-Dihydro-5-(3,6-dihydro-6-methyl-2-oxo-2H-1,3,4-thiadiazin-5-yl)-3,3-dimethyl-1-phenyl-2H-indol-2-one] | – | 0.20 | –
5 | CC1SC(=O)NN=C1c1ccc2c(c1)C(C1CCCCC1)C(=O)N2 (stereo not drawn) [Example 10, 3-Cyclohexyl-1,3-dihydro-5-(3,6-dihydro-6-methyl-2-oxo-2H-1,3,4-thiadiazin-5-yl)-2H-indol-2-one] | – | 0.99 | –
6 | O=C1NN=C(c2ccc3c(c2)C(Sc2ccccc2)C(=O)N3)CS1 (stereo not drawn) [Example 11, 1,3-Dihydro-5-(3,6-dihydro-2-oxo-2H-1,3,4-thiadiazin-5-yl)-3-phenylthio-2H-indol-2-one] | – | 0.21 | –

Next, values leading:

Row | Max ATPase activity(%) [1] | Shift in pCa50 (ΔpCa50) [1] | IC50 [2] [µM] | Compound
7 | -18% | 0.19 | 0.87 | CC1SC(=O)NN=C1c1ccc2c(c1)C1(CCCC1)C(=O)N2C(=O)c1ccc(N)cc1.Cl (stereo not drawn) [Example 1, 1′-[(4-Aminophenyl)carbonyl]-5′-(3,6-dihydro-6-methyl-2-oxo-2H-1,3,4-thiadiazin-5-yl)-spiro[cyclopentane-1,3′-[3H]-indol]-2′(1′H)-one, hydrochloride]
8 | – | 0.23 | 6.7 | CCOC(=O)CN1C(=O)C(C)(C)c2cc(C3=NNC(=O)SC3C)ccc21 (stereo not drawn) [Example 3, Ethyl 2,3-dihydro-5-(3,6-dihydro-6-methyl-2-oxo-2H-1,3,4-thiadiazin-5-yl)-3,3-dimethyl-2-oxo-N-1H-indole-1-acetate]
9 | – | 0.68 | 3.2 | CC1SC(=O)NN=C1c1ccc2c(c1)C(c1ccccc1)C(=O)N2 (stereo not drawn) [Example 4, 1,3-Dihydro-5-(3,6-dihydro-6-methyl-2-oxo-2H-1,3,4-thiadiazin-5-yl)-3-phenyl-2H-indol-2-one]
10 | – | 0.49 | – | O=C1NN=C(c2ccc3c(c2)C(C2CCCCC2)C(=O)N3)CS1 (stereo not drawn) [Example 12, 3-Cyclohexyl-1,3-dihydro-5-(3,6-dihydro-2-oxo-2H-1,3,4-thiadiazin-5-yl)-2H-indol-2-one]
